# Results reported in patent US4161542A, “Heart active compounds” (priority 1975, dated 1979).
# Read-outs that look alike come from different tables or passages of the source.
# Tests used:
# α-receptor = target: T1, α-receptor (Rattus norvegicus, UniProt P43140); assay: α-blocking activity in isolated rat vas deferens (antagonism of noradrenaline contraction)
# T1 construct: from tissue; host or cells: isolated rat vas deferens
# T1 sequence (P43140 1-466): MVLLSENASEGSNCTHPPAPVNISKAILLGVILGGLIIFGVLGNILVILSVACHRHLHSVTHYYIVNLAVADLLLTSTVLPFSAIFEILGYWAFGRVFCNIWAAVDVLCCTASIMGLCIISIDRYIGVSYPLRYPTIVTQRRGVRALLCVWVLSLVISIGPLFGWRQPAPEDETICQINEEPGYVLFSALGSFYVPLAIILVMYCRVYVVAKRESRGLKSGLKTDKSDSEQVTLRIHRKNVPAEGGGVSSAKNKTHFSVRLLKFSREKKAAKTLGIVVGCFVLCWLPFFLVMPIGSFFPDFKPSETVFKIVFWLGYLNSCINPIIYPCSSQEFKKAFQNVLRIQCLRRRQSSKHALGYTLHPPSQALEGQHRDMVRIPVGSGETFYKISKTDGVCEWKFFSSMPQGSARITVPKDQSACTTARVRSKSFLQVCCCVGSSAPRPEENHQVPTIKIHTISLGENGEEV
# Procedure: α-blocking activity was tested in isolated rat vas deferens. Rats were decapitated and the vas deferens was immediately dissected out and mounted in an oxygenated Krebs Ringer solution at 37° C. Noradrenaline administered to the bath caused α-receptor mediated contraction of vas deferens, which was recorded with an isometric tension transducer. Dose response curves to noradrenaline were constructed before and after three increasing doses of the test compound. By using Schildt plots pA2 values for α-receptor blockade were obtained. By definition pA2 =-log concentration of an antagonist (in this case, the test compound) which requires that the concentration of the related agonist (in this case noradrenaline) be doubled in the presence of the antagonist in order to produce the same effect as the agonist caused in the absence of the antagonist.
# β-receptors = assay: β-blocking activity in reserpinized anesthetized cat (block of isoprenaline effect on heart rate and peripheral resistance; intrinsic activity); type: in vivo; details: for Intrinsic activity (increase in heart rate relative to basal): after final dose giving 100% blockade of isoprenaline response; for Block of isopren. ED50 HR (heart rate blockade) / Block of isopren. ED50 PR (peripheral resistance blockade): cumulative doses, vs isoprenaline i.v.; for Block of isopren. ED50 PR (peripheral resistance blockade): peripheral vascular resistance
# Procedure: Anesthetized cats (males and females weighing 2.5-3.5 kg) were pretreated with reserpine (5 mg/kg bodyweight administered intramuscularly) about 16 hours before the experiments. The animals were pretreated with reserpine in order to eliminate the endogenous sympathetic control of heart rate and vascular smooth muscle tone. The cats were anesthetized with pentobarbital (30 mg/kg bodyweight administered i.p.) and artificially ventilated with room air. A bilateral vagotomy was performed in the neck. Blood pressure was obtained from a cannulated carotid artery and heart rate was registered from a cardiotachometer, triggered by the electrocardiogram (ECG). One […] artery was cannulated and perfused with the cat's own blood, delivered at a constant flow rate with a Watson Marlow roller pump. The perfusion pressure was recorded with a Statham pressure transducer. The blood flow rate was so adjusted that the initially recorded perfusion pressure was slightly above the systemic arterial mean blood pressure. In the studied hind limb the paw was excluded from the circulation by a tight ligature. An isoprenaline dose administered intravenously was established giving a submaximal heart rate (HR) increase and a submaximal decrease of peripheral vascular resistance (PR). The latter is shown as a drop of perfusion pressure.
# To start the test, an initial dose of the test compound is injected into the animal. Ten minutes afterward the predetermined dose of isoprenaline is injected and the effect of the isoprenaline on the heart rate and peripheral resistance is noted. By comparing these observations with the normal response of the test animal to the predetermined dose of isoprenaline, the percent blockade of the HR and PR caused by the initial dose of test compound is calculated. The experiment is repeated with logrithmically increasing doses of the test compound (on a cumulative basis), alternating with the predetermined dose of isoprenaline every 10 minutes.
# After the final dose of the test compound is administered--which is sufficient to cause a 100% blockade of the isoprenaline response--the intrinsic activity of the test compound is noted as the increase in heart rate relative to the basal heart rate of the test animal before the experiment began.
# [1] = isolated rat vas deferens, Krebs Ringer, 37° C., noradrenaline agonist, Schildt plot, read-out: pA2 (α-receptor blockade) (converted)
Compound,Kb (α-receptor; [1]),Intrinsic activity (increase in heart rate relative to basal) (β-receptors),Block of isopren. ED50 HR (heart rate blockade) (β-receptors),Block of isopren. ED50 PR (peripheral resistance blockade) (β-receptors),Kb (α-receptor)
"Cc1ccccc1OCC(O)CNC(C)Cc1ccc(O)cc1 (stereo not shown) [Ex. 1, 3-[2-(4-hydroxyphenyl)-1-methylethylamino]-1-o-methylphenoxy-propanol-2]",158 nM,+16 beats/min.,0.07 mg/kg,0.07 mg/kg,–
"CCc1ccccc1OCC(O)CNC(C)Cc1ccc(O)cc1 (stereo not shown) [Ex. 2, 3-[2-(4-hydroxyphenyl)-1-methylethylamino]-1-o-ethylphenoxy-propanol-2]",–,+32 beats/min.,0.11 mg/kg,0.15 mg/kg,63.1 nM
"C=CCc1ccccc1OCC(O)CNC(C)Cc1ccc(O)cc1 (stereo not shown) [Ex. 3, 3-[2-(4-hydroxyphenyl)-1-methylethylamino]-1-o-allylphenoxy-propanol-2]",–,+33 beats/min.,0.7 mg/kg,1.1 mg/kg,63.1 nM
"C#CCOc1ccccc1OCC(O)CNC(C)Cc1ccc(O)cc1 (stereo not shown) [Ex. 4, 3-[2-(4-hydroxyphenyl)-1-methylethylamino]-1-o-propargyloxyphenoxy-propanol-2]",251 nM,+22 beats/min.,0.12 mg/kg,0.35 mg/kg,–
"Cc1ccccc1OCC(O)CNC(C)(C)Cc1ccc(O)cc1 (stereo not shown) [Ex. 5, 3-[2-(4-hydroxyphenyl)-1,1-dimethylethylamino]-1-o-methylphenoxy-propanol-2]",1580 nM,+62 beats/min.,0.06 mg/kg,0.3 mg/kg,–
"CCc1ccccc1OCC(O)CNC(C)(C)Cc1ccc(O)cc1 (stereo not shown) [Ex. 6, 3-[2-(4-hydroxyphenyl)-1,1-dimethylethylamino]-1-o-ethylphenoxy-propanol-2]",158 nM,+38 beats/min.,0.04 mg/kg,0.04 mg/kg,–
"C=CCc1ccccc1OCC(O)CNC(C)(C)Cc1ccc(O)cc1 (stereo not shown) [Ex. 7, 3-[2-(4-hydroxyphenyl)-1,1-dimethylethylamino]-1-o-allylphenoxy-propanol-2]",398 nM,+39 beats/min.,0.09 mg/kg,0.06 mg/kg,–
"Cc1cccc(OCC(O)CNC(C)Cc2ccc(O)cc2)c1C (stereo not shown) [Ex. 9, 3-[2-(4-hydroxyphenyl)-1-methylethylamino]-1-[2,3-dimethylphenoxy]-propanol-2]",794 nM,–,0.26 mg/kg,0.59 mg/kg,–
"COc1ccccc1OCC(O)CNC(C)Cc1ccc(O)cc1 (stereo not shown) [Ex. 10, 3-[2-(4-hydroxyphenyl)-1-methylethylamino]-1-o-methoxyphenoxy-propanol-2]",398 nM,+40 beats/min.,0.04 mg/kg,0.5 mg/kg,–
"CCc1ccccc1OCC(O)C(C)NC(C)Cc1ccc(O)cc1 (stereo not shown) [Ex. 11, 3-methyl-3-[2-(4-hydroxyphenyl)-1-methylethylamino]-1-o-ethylphenoxy-propanol-2]",631 nM,+18 beats/min.,0.3 mg/kg,0.5 mg/kg,–
"C=CCc1ccccc1OCC(O)C(CC)NC(C)Cc1ccc(O)cc1 (stereo not shown) [Ex. 12, 3-ethyl-3-[2-(4-hydroxyphenyl)-1-methylethylamino]-1-o-allylphenoxy-propanol-2]",251 nM,–,5.1 mg/kg,3.3 mg/kg,–
"Cc1ccccc1OCC(O)C(C)NC(C)(C)Cc1ccc(O)cc1 (stereo not shown) [Ex. 13, 3-methyl-3-[2-(4-hydroxyphenyl)-1,1-dimethylethylamino]-1-o-methylphenoxy-propanol-2]",631 nM,+9 beats/min.,1.3 mg/kg,8.5 mg/kg,–
"C=CCc1ccccc1OCC(O)C(C)NC(C)(C)Cc1ccc(O)cc1 (stereo not shown) [Ex. 14, 3-methyl-3-[2-(4-hydroxyphenyl)-1,1-dimethylethylamino]-1-o-allylphenoxy-propanol-2]",39.8 nM,+3 beats/min.,2.5 mg/kg,0.6 mg/kg,–
"Cc1cccc(OCC(O)CNC(C)Cc2ccc(O)cc2)c1 (stereo not shown) [Ex. 15, 3-[2-(4-hydroxyphenyl)-1-methylethylamino]-1-m-methylphenoxy-propanol-2]",6310 nM,+16 beats/min.,0.3 mg/kg,0.9 mg/kg,–
"CCCc1ccccc1OCC(O)CNC(C)Cc1ccc(O)cc1 (stereo not shown) [Ex. 16, 3-[2-(4-hydroxyphenyl)-1-methylethylamino]-1-o-propylphenoxy-propanol-2]",158 nM,+35 beats/min.,1.3 mg/kg,0.8 mg/kg,–
"COCCc1ccc(OCC(O)CNC(C)C)cc1 (stereo not shown) [Metoprolol, metoprolol, reference compound]",–,0 beats/min.,0.2 mg/kg,4.7 mg/kg,–
"CC(C)NCC(O)COc1cccc2ccccc12 (stereo not shown) [Propranolol, propranolol, reference compound]",–,0 beats/min.,0.1 mg/kg,0.1 mg/kg,–
